Results as given in the NIST ThermoML archive (doi:10.1016/j.jct.2009.05.006).

Columns and labels:
[1] = xn = mol fraction of the nth substance listed; details: 298.15 K, 101 kPa, Liquid, Vibrating tube method
[2] = excess molar enthalpy (molar enthalpy of mixing); xn = mol fraction of the nth substance listed; details: 298.15 K, 101 kPa, Liquid, Calvet calorimetry

BrCCCBr [1,3-dibromopropane] + CCCCOC=O
Details | excess molar enthalpy [kcal/mol] | mass density [kg/m3]
[1], x2 = 0.055 | – | 1904.29
[1], x2 = 0.1095 | – | 1839
[1], x2 = 0.1626 | – | 1776.37
[1], x2 = 0.2171 | – | 1712.74
[1], x2 = 0.273 | – | 1648.68
[1], x2 = 0.3252 | – | 1589.49
[1], x2 = 0.5003 | – | 1397.08
[1], x2 = 0.5617 | – | 1331.4
[1], x2 = 0.6186 | – | 1271.46
[1], x2 = 0.6866 | – | 1200.91
[1], x2 = 0.8026 | – | 1082.84
[1], x2 = 0.8655 | – | 1020.08
[1], x2 = 0.9344 | – | 952.37
[2], x2 = 0.0631 | 0.0155 | –
[2], x2 = 0.1489 | 0.0306 | –
[2], x2 = 0.2355 | 0.0397 | –
[2], x2 = 0.3208 | 0.0435 | –
[2], x2 = 0.3958 | 0.0428 | –
[2], x2 = 0.4589 | 0.0409 | –
[2], x2 = 0.5144 | 0.0378 | –
[2], x2 = 0.5498 | 0.0356 | –
[2], x2 = 0.5621 | 0.0344 | –
[2], x2 = 0.6372 | 0.0289 | –
[2], x2 = 0.7237 | 0.0227 | –
[2], x2 = 0.8208 | 0.0143 | –
[2], x2 = 0.9151 | 0.00693 | –

BrCCCCCCBr [1,6-dibromohexane] + CCCCOC(C)=O
Details | excess molar enthalpy [kcal/mol] | mass density [kg/m3]
[1], x2 = 0.1369 | – | 1513.56
[1], x2 = 0.2111 | – | 1464.63
[1], x2 = 0.2634 | – | 1429.52
[1], x2 = 0.3292 | – | 1384.72
[1], x2 = 0.3855 | – | 1345.64
[1], x2 = 0.4456 | – | 1303.3
[1], x2 = 0.5046 | – | 1260.95
[1], x2 = 0.5622 | – | 1219.05
[1], x2 = 0.6175 | – | 1178.12
[1], x2 = 0.7334 | – | 1090.14
[1], x2 = 0.7855 | – | 1049.66
[1], x2 = 0.8433 | – | 1003.91
[1], x2 = 0.8909 | – | 965.75
[1], x2 = 0.9462 | – | 920.67
[2], x2 = 0.0742 | 0.00813 | –
[2], x2 = 0.1664 | 0.0139 | –
[2], x2 = 0.27 | 0.0179 | –
[2], x2 = 0.3625 | 0.0179 | –
[2], x2 = 0.4313 | 0.0151 | –
[2], x2 = 0.4863 | 0.012 | –
[2], x2 = 0.5098 | 0.00956 | –
[2], x2 = 0.5385 | 0.00741 | –
[2], x2 = 0.5631 | 0.00406 | –
[2], x2 = 0.5869 | 0.00167 | –
[2], x2 = 0.6272 | -0.00239 | –
[2], x2 = 0.6989 | -0.00526 | –
[2], x2 = 0.7827 | -0.00621 | –
[2], x2 = 0.8669 | -0.00478 | –
[2], x2 = 0.9422 | -0.00239 | –

CCCCOC(=O)CCC [butyl butanoate] + BrCCCCCCBr
Details | excess molar enthalpy [kcal/mol] | mass density [kg/m3]
[1], x1 = 0.0615 | – | 1551.3
[1], x1 = 0.114 | – | 1509.95
[1], x1 = 0.1733 | – | 1463.7
[1], x1 = 0.2207 | – | 1427.05
[1], x1 = 0.2782 | – | 1383.1
[1], x1 = 0.3299 | – | 1343.86
[1], x1 = 0.3955 | – | 1294.64
[1], x1 = 0.4505 | – | 1253.75
[1], x1 = 0.5089 | – | 1210.69
[1], x1 = 0.5674 | – | 1168
[1], x1 = 0.6293 | – | 1123.3
[1], x1 = 0.68 | – | 1087.08
[1], x1 = 0.7477 | – | 1039.01
[1], x1 = 0.8082 | – | 996.64
[1], x1 = 0.8735 | – | 951.23
[1], x1 = 0.9358 | – | 908.5
[2], x1 = 0.0751 | 0.00502 | –
[2], x1 = 0.1669 | 0.00693 | –
[2], x1 = 0.2609 | 0.00669 | –
[2], x1 = 0.3471 | 0.00454 | –
[2], x1 = 0.418 | 0.000478 | –
[2], x1 = 0.4834 | -0.00406 | –
[2], x1 = 0.5223 | -0.00789 | –
[2], x1 = 0.5361 | -0.0086 | –
[2], x1 = 0.5892 | -0.0105 | –
[2], x1 = 0.6544 | -0.0115 | –
[2], x1 = 0.7475 | -0.0115 | –
[2], x1 = 0.8287 | -0.00956 | –
[2], x1 = 0.9253 | -0.00502 | –

CCCCOC(=O)CCC [butyl butanoate] + BrCCBr
[2]
Details | excess molar enthalpy [kcal/mol]
x1 = 0.0408 | 0.00621
x1 = 0.0978 | 0.0115
x1 = 0.1663 | 0.0139
x1 = 0.2361 | 0.0122
x1 = 0.2997 | 0.00765
x1 = 0.3488 | 0.00359
x1 = 0.4085 | -0.000478
x1 = 0.4847 | -0.00645
x1 = 0.5816 | -0.0115
x1 = 0.7159 | -0.0129
x1 = 0.8632 | -0.00884
x1 = 0.9347 | -0.00526

BrCCBr [1,2-dibromoethane] + CCCCOC(=O)CC
[2]
Details | excess molar enthalpy [kcal/mol]
x2 = 0.0417 | 0.00526
x2 = 0.0966 | 0.00741
x2 = 0.1618 | 0.00621
x2 = 0.2302 | 0.00191
x2 = 0.2936 | -0.00478
x2 = 0.3529 | -0.012
x2 = 0.4091 | -0.0179
x2 = 0.4511 | -0.022
x2 = 0.4917 | -0.0241
x2 = 0.5694 | -0.0265
x2 = 0.6594 | -0.0263
x2 = 0.7605 | -0.0229
x2 = 0.8773 | -0.0151

BrCCCCCCBr [1,6-dibromohexane] + CCCCOC(=O)CC
Details | excess molar enthalpy, [2] [kcal/mol] | mass density, [1] [kg/m3]
x2 = 0.0686 | – | 1552.3
x2 = 0.0731 | 0.00669 | –
x2 = 0.1212 | – | 1514.66
x2 = 0.1582 | 0.0117 | –
x2 = 0.1829 | – | 1470.4
x2 = 0.2418 | 0.0136 | 1427.98
x2 = 0.2995 | – | 1386.24
x2 = 0.3151 | 0.012 | –
x2 = 0.3861 | 0.00621 | –
x2 = 0.4152 | – | 1302.26
x2 = 0.4485 | 0.000239 | –
x2 = 0.4752 | – | 1258.56
x2 = 0.5064 | -0.00669 | –
x2 = 0.5318 | -0.0105 | –
x2 = 0.5419 | -0.0108 | –
x2 = 0.5954 | – | 1170.51
x2 = 0.596 | -0.0143 | –
x2 = 0.6527 | – | 1128.4
x2 = 0.6658 | 0.016 | –
x2 = 0.7123 | – | 1084.48
x2 = 0.7456 | 0.0158 | –
x2 = 0.7652 | – | 1045.44
x2 = 0.8249 | – | 1001.25
x2 = 0.834 | 0.0127 | –
x2 = 0.8847 | – | 956.84
x2 = 0.9306 | 0.00526 | –
x2 = 0.9365 | – | 918.31

BrCCCBr [1,3-dibromopropane] + CCCCOC(C)=O
[2]
Details | excess molar enthalpy [kcal/mol]
x2 = 0.0548 | 0.00191
x2 = 0.1295 | 0.00287
x2 = 0.2133 | 0.00191
x2 = 0.2909 | -0.00167
x2 = 0.3612 | -0.0086
x2 = 0.424 | -0.017
x2 = 0.4792 | -0.0251
x2 = 0.5321 | -0.0289
x2 = 0.6141 | -0.0296
x2 = 0.7077 | -0.0277
x2 = 0.808 | -0.0217
x2 = 0.9143 | -0.0131

BrCCBr [1,2-dibromoethane] + CCCCOC(C)=O
[2]
Details | excess molar enthalpy [kcal/mol]
x2 = 0.0399 | -0.000239
x2 = 0.0964 | -0.000717
x2 = 0.1625 | -0.00382
x2 = 0.2339 | -0.0103
x2 = 0.3039 | -0.0174
x2 = 0.3717 | -0.0246
x2 = 0.4237 | -0.0308
x2 = 0.4749 | -0.0351
x2 = 0.5228 | -0.0363
x2 = 0.5985 | -0.0366
x2 = 0.6854 | -0.0332
x2 = 0.7854 | -0.0277
x2 = 0.8989 | -0.0148

CCCCOC(=O)CCC [butyl butanoate] + BrCCCBr
Details | excess molar enthalpy [kcal/mol] | mass density [kg/m3]
[1], x1 = 0.079 | – | 1834.63
[1], x1 = 0.1205 | – | 1768.32
[1], x1 = 0.206 | – | 1641.3
[1], x1 = 0.2513 | – | 1578.66
[1], x1 = 0.3045 | – | 1509.31
[1], x1 = 0.356 | – | 1445.76
[1], x1 = 0.4085 | – | 1384.26
[1], x1 = 0.4703 | – | 1315.94
[1], x1 = 0.5404 | – | 1243.38
[1], x1 = 0.5989 | – | 1186.32
[1], x1 = 0.7409 | – | 1059.86
[1], x1 = 0.8162 | – | 998.93
[1], x1 = 0.8997 | – | 935.58
[1], x1 = 0.9428 | – | 904.65
[2], x1 = 0.0478 | 0.0055 | –
[2], x1 = 0.1102 | 0.00932 | –
[2], x1 = 0.1831 | 0.0105 | –
[2], x1 = 0.2568 | 0.00765 | –
[2], x1 = 0.3257 | 0.000956 | –
[2], x1 = 0.3879 | -0.00789 | –
[2], x1 = 0.4528 | -0.0163 | –
[2], x1 = 0.5333 | -0.0217 | –
[2], x1 = 0.6324 | -0.0246 | –
[2], x1 = 0.7588 | -0.0225 | –
[2], x1 = 0.8755 | -0.0158 | –
